The target in experiment [1] is T1, pS129-positive αSyn inclusions (Mus musculus, UniProt O55042).
T1 construct: from tissue; host or cells: brain of αSyn PFF-injected C57BL/6J mice
Kind of experiment: Immunofluorescence staining and colocalization, αSyn PFF-injected mouse brain. Particulars: for M1, fraction of A overlapping B / M2, fraction of B overlapping A: Manders' coefficient, αSyn PFF injected mouse, antibody (A) pS129, ligand (B); for Colocalization of ligand with pS129 signal: αSyn-PFF-injected mice, 12 weeks after injection, PPN, periaqueductal gray, SNc, nucleus accumbens.

Experiment [2] addresses T2, recombinant αSyn fibrils (Homo sapiens, UniProt P37840).
T2 construct: made in house; host or cells: E. coli
Briefly: SPR binding kinetics on immobilized αSyn fibrils. Particulars: surface CMD200M, surface density 2940-3400 RU, sum2exp model, two components (lines) per analyte; for kon: read-out: ka, rate constant of association. A general note: SPR reads the build-up and loss of mass on a sensor chip optically.
Protocol: SPR measurements were conducted in HEPES-buffered saline (HBS, Teknova, USA) buffer at 20 °C using Biacore instruments T200 and S200 (Cytiva, Uppsala, Sweden). Aβ42, tau, and αSyn recombinant fibrils were immobilized in the flow cell of sensor chips produced by Xantec (Düsseldorf, Germany) and Cytiva by coupling fibril amine groups to sulfo-N-hydroxysuccinimide (sulfo-NHS)-activated carboxylic acid groups on the chip surface. Since no nonbinding fibril(s) were available, the reference flow cell remained empty. Different chip surfaces, including the carboxymethylated dextran surface CM5 (Cytiva, Sweden), the carboxymethyldextran hydrogel surface CMD200M, the linear polycarboxylate hydrogel surface HC30M and HC1500M, the linear polycarboxylate hydrogel (reduced charge) surface HLC30M, and the zwitterionic hydrogel surface ZC150D (all from Xantec, Germany), were tested to obtain a high immobilization density and low nonspecific adsorption of ligands. All steps for surface preparation and immobilization were conducted at a flow rate of 5 µL/min. The surface carboxylic acid groups were activated with 0.2 M sulfo-NHS and 0.1 M 1-ethyl-3-(3-dimethylaminopropyl)carbodiimide (EDC, Xantec) (CM5 and CMD200M: 0.05 M) in 5 mM 2-(N-morpholino)ethanesulfonic acid (MES buffer, abcr Swiss AG, Switzerland) at pH 5.0 for 550 s (CM5 and CMD200M: 180 s) using 5 mM MES (pH 6.5) as the running buffer. K18-tau and αSyn fibrils were diluted to 2.5–10 µM in 5 mM acetate buffer (Fisher Scientific, Switzerland) at pH 4.5 and coupled for 750 s at a flow rate of 5 µL/minute on all surfaces except for ZD150D. Surfaces were blocked with 1 M ethanolamine (Xantec, Germany) for 500 s. On the ZC150D chip, K18-tau, αSyn and Aβ42 were immobilized at 2.5–10 µM in 5 mM MES, pH 6.5, for 750 s to a surface activated with 0.5 M EDC and 0.1 M sulfo-NHS for 600 s in 5 mM MES, pH 6.5. Finally, the surface was blocked with 1 M glycine in 10 mM MES, pH 6.5.

The target of experiment [3] is T3, recombinant Aβ42 fibrils (Homo sapiens, UniProt P05067).
T3 construct: Recombinant Aβ42, K18-tau, full-length 2N4R tau (441 aa) and αSyn were expressed; made in house; host or cells: E. coli
Briefly: Fluorescence assay of ligands with Aβ42 fibrils. In kind it is binding. Particulars: ligand bound to Aβ42 fibrils; emission peaks. An excerpt:
(§1) Recombinant Aβ42, K18-tau, full-length 2N4R tau (441 aa) and αSyn were expressed and measured for binding with fluorescent ligands as described previously (details in the supplementary material).
(§2) Recombinant Aβ42, K18 tau, full-length 2N4R tau (441 aa) and αSyn were expressed and produced by E. coli as described previously. As a substrate for HRP, Pierce ECL and Western blotting substrate (Thermo Fisher Scientific, U.S.A.) were used to detect Aβ42 and αSyn. To detect K18 tau, ECL Prime Western blotting detection reagents (Cytiva, U.S.A.) were used. Images of the resulting blots were taken with an ImageQuant LAS 4000 (GE Healthcare). […] For Aβ42, the quantity was 3.7 μg because of a higher dilution. […] K18 tau was detected using a monoclonal tau antibody (anti-tau 4-repeat isoform RD4, clone 1E1/A6). Aβ42 was detected with a monoclonal Aβ antibody (clone BAM-10), and αSyn was detected using a monoclonal αSyn antibody (clone Syn211). […] After incubation of the protein solutions, fibrillization was verified by thioflavin T fluorescence assay: 45 μL of thioflavin T (5 μM, Sigma Aldrich, U.S.A.) was mixed with either 2 μL of the incubated αSyn, 5 μL of K18 tau, full-length 2N4R tau or 5 μL of Aβ42 in a 45 µL quartz cuvette (quartz […] Ultra-Micro Cell, Hellma GmbH, Germany).

In experiment [4] the target is T2, recombinant αSyn fibrils. Kind of experiment: Fluorescence assay of ligands with αSYN fibrils. In kind it is binding. As to conditions: ligand bound to αSYN fibrils; emission peaks.
From the text: as §1, §2

Experiment [5] has as its target T4, pS129-positive αSyn inclusions (Homo sapiens, UniProt P37840).
T4 construct: tissue Netherlands Brain Bank; host or cells: postmortem PD brain, medulla oblongata
Briefly: Immunofluorescence staining and colocalization, PD patient brain slices. Particulars: for M1, fraction of A overlapping B / M2, fraction of B overlapping A: Manders' coefficient, sample PD, antibody (A) pS129, ligand (B); for Ligand detection of αSyn inclusions: medulla oblongata tissue slices from two PD patients, costained with pS129 antibody. An excerpt:
Two PD patients, each with a clinical diagnosis confirmed by pathological examination of Lewy bodies (Braak LB 6, without tau and Aβ), were included in this study (detailed information in Table 1). Paraffin-embedded autopsied brain tissues from the medulla oblongata and cerebellum with high αSyn inclusion accumulation were obtained from the Netherlands Brain Bank (NBB), Netherlands (Table 2).
The details on the antibodies and ligand concentrations are described in STable 1. 2. Human paraffin-embedded brain sections (3 µm) were deparaffinized and rehydrated prior to antigen retrieval step (citrate buffer pH 6.0) in a microwave for 20 min at 98 °C. The sections were then costained with anti-αSyn (phospho-S129, pS129) antibody plus fluorescent secondary antibody. Ligands were incubated after secondary antibody incubation for 30 min. Sections were counterstained using 4’,6-diamidino-2-phenylindole (DAPI). Mouse brains were embedded in tissue freezing media (OCT Compound, Tissue Tek, USA) and cut into 30–40 μm thick consecutive coronal sections using a cryostat microtome (CM3050 S, Leica, Germany). All sections spanning the complete rostrocaudal extent of the brain were kept in the correct order and stored at 4 °C in cryoprotect solution (1:1:3 volume ratio of ethylenglycol, glycerol and 0.1 M PBS) until further processing. Anti-αSyn pS129 antibodies, anti-phospho-tau antibodies (AT-8, AT-100), or anti-Aβ1-16 antibody 6E10 plus fluorescent secondary antibody were used as previously described on brain slices from αSyn PFF-injected mice, arcAβ mice, and pR5 mice. Ligands were incubated with secondary antibody for 30 min. Sections were counterstained with DAPI. The brain sections were imaged at 20 × magnification using an Axio Observer Z1 microscope (whole brain slide scanner) and at 63 × magnification using a Leica SP8 confocal microscope (Leica, Germany) for colocalization. It took approximately 1–1.5 h to acquire the tilted human brain slices by a slide scanner in our experiment (20 ×). The time varied depending on the size of the sample. Lambda scans were performed using a Leica SP8 confocal microscope for the emission spectrum of the ligands on the staining as previously described to validate the signal. The images were analyzed using Qupath and Fiji (NIH, U.S.A.). Colocalization analysis of the confocal microscopy images (probe and antibody channels) was performed by using Fiji, and Manders' coefficients (M1, M2) were computed.

Experiment [6] concerns the target recombinant K18 tau fibrils (Homo sapiens, UniProt P10636). Kind of experiment: Fluorescence assay of ligands with K18 tau fibrils. The experiment is classed as binding. Set-up: made in house; host or cells: E. coli. Particulars: ligand bound to K18 tau fibrils; emission peaks.
From the text: as §1, §2

Experiment [7] addresses T5, tau inclusions (AT-8/AT-100 positive) (Homo sapiens, UniProt P10636, P618L).
T5 construct: from tissue; host or cells: brain (cortex, hippocampus) of pR5 transgenic mice
Kind of experiment: Immunofluorescence staining and colocalization, pR5 mouse brain. As to conditions: for M1, fraction of A overlapping B / M2, fraction of B overlapping A: Manders' coefficient, pR5 mouse.

In experiment [8] the target is T6, recombinant full-length 2N4R tau fibrils (Homo sapiens, UniProt P10636).
T6 construct: full-length 2N4R tau (441 aa); made in house; host or cells: E. coli
Briefly: SPR binding kinetics on immobilized full-length 2N4R tau fibrils. As to conditions: surface ZC150D, surface density 2900 RU, sum2exp model, two components per analyte. As for the experimental part: [The source words this procedure for another variant and reports this variant under the same test.] (§3) SPR measurements were conducted in HEPES-buffered saline (HBS, Teknova, USA) buffer at 20 °C using Biacore instruments T200 and S200 (Cytiva, Uppsala, Sweden). Aβ42, tau, and αSyn recombinant fibrils were immobilized in the flow cell of sensor chips produced by Xantec (Düsseldorf, Germany) and Cytiva by coupling fibril amine groups to sulfo-N-hydroxysuccinimide (sulfo-NHS)-activated carboxylic acid groups on the chip surface. Since no nonbinding fibril(s) were available, the reference flow cell remained empty. […]
(§4) The immobilized fibrils were stable for a few days. Kinetic constants for binding were determined by injection of a dilution series of 5–8 concentrations of ligand in HBS buffer at a flow rate of 30 µL/minute in duplicate ("full kinetics").
(§5) The data was evaluated using BiaEvaluate v2.03 software (Cytiva, Sweden). Binding kinetics were analyzed globally using different kinetic models, including 1 + 1, a sum of two exponentials model ("heterogeneous ligand" in terms of BiaEvaluate, sum2exp), and a sum of three exponentials model (sum3exp) that was created using the script editor of the software.

Experiment [9] deals with T3, recombinant Aβ42 fibrils. Kind of experiment: SPR binding kinetics on immobilized Aβ42 fibrils. As to conditions: surface ZC150D, surface density 1770 RU, sum2exp model, two components per analyte. As for the experimental part: as §3, §4, §5
Experiment [10] has as its target T3, recombinant Aβ42 fibrils. Set-up: method as in PMID 27767229. As to conditions: read-out: EC50, competition with [^3H]X-34; cited from earlier work.
[11] abbreviates: antibody (A) AT-100, ligand (B).

The values that follow come from article PMC11527973, “Efficient characterization of multiple binding sites of small molecule imaging ligands on amyloid-beta, tau and alpha-synuclein” (European Journal of Nuclear Medicine and Molecular Imaging, 2024).

Structures are written as SMILES.

T3 sequence (P05067 672-713 limits assumed): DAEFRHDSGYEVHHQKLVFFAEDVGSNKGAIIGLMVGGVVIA
T5 sequence (P10636 1-441 isoform P10636-8 P301L): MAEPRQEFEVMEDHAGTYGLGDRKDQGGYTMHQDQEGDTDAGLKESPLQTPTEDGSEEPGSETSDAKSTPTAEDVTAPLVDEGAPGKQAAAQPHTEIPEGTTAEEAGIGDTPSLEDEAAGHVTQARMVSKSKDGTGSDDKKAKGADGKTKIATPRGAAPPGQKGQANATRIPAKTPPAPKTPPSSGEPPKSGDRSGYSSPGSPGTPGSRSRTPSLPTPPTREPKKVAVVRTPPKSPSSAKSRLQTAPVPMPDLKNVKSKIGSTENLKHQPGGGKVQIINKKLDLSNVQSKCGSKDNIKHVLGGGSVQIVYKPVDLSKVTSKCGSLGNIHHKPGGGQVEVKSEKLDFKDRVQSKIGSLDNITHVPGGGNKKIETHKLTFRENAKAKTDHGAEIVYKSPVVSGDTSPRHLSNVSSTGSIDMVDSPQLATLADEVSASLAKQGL
recombinant K18 tau fibrils, sequence (P10636 561-685 limits assumed): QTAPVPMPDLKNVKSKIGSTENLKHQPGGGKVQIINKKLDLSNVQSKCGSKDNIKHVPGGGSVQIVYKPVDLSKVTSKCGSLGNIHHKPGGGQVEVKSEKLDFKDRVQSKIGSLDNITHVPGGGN
T6 sequence (P10636 1-441 isoform P10636-8): as the sequence (P10636 1-441 isoform P10636-8 P301L) above, with L301P counted along it

For the compound `O=C(O)Cc1cc(-c2ccc(-c3cc(CC(=O)O)c(-c4ccc(C(=O)O)s4)s3)s2)sc1-c1ccc(C(=O)O)s1` [HS-84], in experiment [1], the “M1, fraction of A overlapping B” value turned out to be 0.839; the “M2, fraction of B overlapping A” value is 0.838; the “Colocalization of ligand with pS129 signal” value is reported as “Colocalization”.

Take `O=C(O)Cc1cc(-c2ccc(-c3cc(CC(=O)O)c(-c4ccc(C(=O)O)s4)s3)c3nsnc23)sc1-c1ccc(C(=O)O)s1` [HS-169]: at recombinant αSyn fibrils [2], the “ka, rate constant of association” value was 1.45E + 05 M^−1 s^−1 and the kon is 288000 M⁻¹ s⁻¹. Also, in experiment [1], the “M1, fraction of A overlapping B” value is 0.673; the “M2, fraction of B overlapping A” value came out at 0.84; the “Colocalization of ligand with pS129 signal” value was “Colocalization”. In addition, the Emission wavelength at recombinant Aβ42 fibrils [3] is given as 650 nm. In addition, on recombinant αSyn fibrils [4], the Emission wavelength is reported as 643 nm. Moreover, in experiment [5], the “M1, fraction of A overlapping B” value is recorded as 0.81; the “M2, fraction of B overlapping A” value is on record as 0.866; the “Ligand detection of αSyn inclusions” value is on record as “bound to pS129-positive αSyn inclusions”. Besides, in [6], the Emission wavelength turned out to be 640 nm. Moreover, in [7] (antibody (A) AT-8, ligand (B)), the “M1, fraction of A overlapping B” value was 0.164 and the “M2, fraction of B overlapping A” value came to 0.279.

Regarding `Cc1c(OCC(F)(F)F)ccnc1C[S+]([O-])c1nc2ccccc2[nH]1` (stereo not drawn) [Lan, lansoprazole], the “ka, rate constant of association” value (in experiment [8]; on recombinant Aβ42 fibrils [9]) was “lower than 10^3 M^−1 s^−1” each time.

With `CC[n+]1c(/C=C/C=C/c2ccc(N(C)C)cc2)sc2ccccc21` [PBB5], the results for the Emission wavelength (at recombinant Aβ42 fibrils [3]; at recombinant αSyn fibrils [4]; in [6]) were 695 nm, 690 nm and 688 nm, respectively. Also, the “M1, fraction of A overlapping B” value in [7] (antibody (A) AT-8, ligand (B)) came to 0.39; in experiment [7] (setting [11]), 0.024. Besides, the “M2, fraction of B overlapping A” value in experiment [7] (antibody (A) AT-8, ligand (B)) is recorded as 0.09; in [7] (setting [11]), 0.018. For the same compound, the “Ligand detection of tau inclusions” value in experiment [7] (pR5 mice, cortex and hippocampus, costained with AT-8) was “confirmed the presence of PBB5 in tau inclusions”.

As usually defined, the EC50 is the concentration needed to bring the measured effect to its halfway point. With `O=C(O)Cc1cc(-c2ccc(-c3ccc(C(=O)O)s3)s2)sc1-c1ccc(-c2sc(-c3ccc(-c4ccc(C(=O)O)s4)s3)cc2CC(=O)O)s1` [h-FTAA, Hepta-formylthiophene acetic acid], at recombinant αSyn fibrils [2], the “ka, rate constant of association” value was found to be 111000 M⁻¹ s⁻¹ and the kon worked out at 162000 M⁻¹ s⁻¹. Further, the EC50 on recombinant Aβ42 fibrils [10] is about 0.25 µM. Also, in experiment [5], the “M1, fraction of A overlapping B” value was 0.404; the “M2, fraction of B overlapping A” value stood at 0.4; the “Ligand detection of αSyn inclusions” value is listed as “bound to pS129-positive αSyn inclusions”. In addition, in [7] (antibody (A) AT-8, ligand (B)), the “M1, fraction of A overlapping B” value is on record as 0.215 and the “M2, fraction of B overlapping A” value is recorded as 0.07. Moreover, in experiment [7] (setting [11]), the “M1, fraction of A overlapping B” value amounted to 0.459 and the “M2, fraction of B overlapping A” value came to 0.16.
